Active and inactive are the calls of the source. The rule behind the calls is not given here.
Assays:
Rattus norvegicus [1] = test: Antidiabetic activity in Zucker fa/fa rat assessed as decrease in triglyceride levels at 1 mg/kg, po once daily for 7 days; format: functional, organism-based; parameters: dose 1 mg/kg
[2] = target: Peroxisome proliferator-activated receptor alpha (Canis lupus familiaris, UniProt Q95N78); test: Agonist activity at dog PPARalpha receptor; format: functional
[3] = target: Oxysterols receptor LXR-beta (Homo sapiens) (UniProt P55055); test: Activity at LXRbeta receptor up to 10 uM by transactivation assay
[4] = target: Thyroid hormone receptor alpha (Homo sapiens) (UniProt P10827); test: Binding affinity to TRalpha up to 10 uM
Rattus norvegicus [5] = test: Antidiabetic activity in Zucker fa/fa rat assessed as decrease in free fatty acid levels at 1 mg/kg, po once daily for 7 days; format: functional, organism-based; parameters: dose 1 mg/kg
[6] = target: Glucocorticoid receptor (Homo sapiens) (UniProt P04150); test: Activity at GR receptor up to 10 uM by transactivation assay
Mus musculus [7] = test: Antidiabetic activity in ob/ob mouse assessed as insulin correction at 3 mg/kg, po once daily for 5 days relative to control; format: functional
[8] = Cmax in C57BLKS/J-m+/+Leprdb db/db mouse at 1 mg/kg, po once daily for 11 days; format: ADME, organism-based; parameters: dose 1 mg/kg, route oral; details: in vivo
Mus musculus [9] = test: Antidiabetic activity in ob/ob mouse assessed as reduction in plasma triglyceride levels at 3 mg/kg, po once daily for 5 days relative to control; format: functional; parameters: scale not given: the % may be the effect or the level left
Rattus norvegicus [10] = test: Toxicity in Zucker fa/fa rat assessed as increase in plasma volume at 10 mg/kg, po treated once daily for 7 days; details: in vivo, 168 h
Cytochrome P450 2C9 = Cytochrome P450 2C9 (Homo sapiens, UniProt P11712); test: Inhibition of CYP2C9; format: ADME
Mus musculus [11] = test: Antidiabetic activity in ob/ob mouse assessed as reduction in plasma triglyceride levels at 10 mg/kg, po once daily for 5 days relative to control; format: functional; parameters: scale not given: the % may be the effect or the level left
[12] = Cmax in C57BLKS/J-m+/+Leprdb db/db mouse at 10 mg/kg, po once daily for 11 days; format: ADME, organism-based; parameters: dose 10 mg/kg, route oral; details: in vivo
Syrian golden hamster = test: Antidiabetic activity in Syrian golden hamster assessed as reduction in cholesterol level at 1 mg/kg, po once daily for 9 days relative to control; format: functional, Mesocricetus auratus; parameters: scale not given: the % may be the effect or the level left
[13] = Cmax in Beagle dog at 1 mg/kg, po once daily for 14 days; format: ADME, organism-based, Canis lupus familiaris; parameters: dose 1 mg/kg, route oral; details: in vivo
Mus musculus [14] = test: Antidiabetic activity in C57BLKS/J-m+/+Leprdb db/db mouse assessed as reduction in plasma glucose levels at 10 mg/kg, po once daily for 11 days relative to control; format: functional; parameters: scale not given: the % may be the effect or the level left
Rattus norvegicus [15] = test: Antidiabetic activity in Zucker fa/fa rat assessed as decrease in triglyceride levels at 10 mg/kg, po once daily for 7 days; format: functional, organism-based; parameters: dose 10 mg/kg
[16] = target: Nuclear receptor subfamily 1 group I member 2 (Homo sapiens, UniProt O75469); test: Activity at PXR receptor up to 10 uM by transactivation assay
[17] = Cmax in Beagle dog at 3 mg/kg, po once daily for 14 days; format: ADME, organism-based, Canis lupus familiaris; parameters: dose 3 mg/kg, route oral; details: in vivo
[18] = Cmax in Syrian golden hamster at 0.3 mg/kg, po once daily for 9 days; format: ADME, organism-based, Mesocricetus auratus; parameters: dose 0.3 mg/kg, route oral; details: in vivo
[19] = target: Thyroid hormone receptor beta (Homo sapiens) (UniProt P10828); test: Activity at TRbeta receptor up to 10 uM by transactivation assay
Rattus norvegicus [20] = test: Antidiabetic activity in Zucker fa/fa rat assessed as decrease in free fatty acid levels at 3 mg/kg, po once daily for 7 days; format: functional, organism-based; parameters: dose 3 mg/kg
Canis familiaris = test: Antidiabetic activity in Beagle dog assessed as reduction in total cholesterol level at 3 mg/kg, po once daily for 14 days relative to control; format: functional, Canis lupus familiaris; parameters: scale not given: the % may be the effect or the level left
[21] = target: T1, Peroxisome proliferator-activated receptor alpha (Mus musculus, UniProt P23204); test: Agonist activity at mouse PPARalpha receptor expressed in african green monkey COS1 cells co-transfected with fused yeast Gal4-DBD by transactivation assay; format: functional, cell-based, COS-1
T1 sequence (P23204 whole entry): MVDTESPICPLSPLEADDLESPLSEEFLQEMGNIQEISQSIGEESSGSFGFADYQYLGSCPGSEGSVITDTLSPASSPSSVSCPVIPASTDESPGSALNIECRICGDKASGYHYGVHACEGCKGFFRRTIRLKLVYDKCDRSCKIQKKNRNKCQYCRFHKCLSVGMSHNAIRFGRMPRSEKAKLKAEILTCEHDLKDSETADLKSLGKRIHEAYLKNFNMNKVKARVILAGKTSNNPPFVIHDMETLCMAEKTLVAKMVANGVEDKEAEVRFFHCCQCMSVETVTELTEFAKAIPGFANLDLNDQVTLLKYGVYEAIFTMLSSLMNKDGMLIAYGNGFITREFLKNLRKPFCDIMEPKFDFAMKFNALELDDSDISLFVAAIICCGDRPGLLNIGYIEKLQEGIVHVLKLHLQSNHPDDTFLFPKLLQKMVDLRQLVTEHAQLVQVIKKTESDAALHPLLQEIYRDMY

[22] = AUC in Syrian golden hamster at 1 mg/kg, po once daily for 9 days; format: ADME, organism-based, Mesocricetus auratus; parameters: dose 1 mg/kg, route oral; details: plasma
[23] = target: Oxysterols receptor LXR-beta (Homo sapiens) (UniProt P55055); test: Binding affinity to LXRbeta up to 10 uM
Rattus norvegicus [24] = test: Toxicity in Zucker fa/fa rat assessed as increase in plasma volume at 15 mg/kg, po treated once daily for 7 days; format: organism-based; parameters: dose 15 mg/kg, route oral; details: in vivo, 168 h
[25] = target: T2, Peroxisome proliferator-activated receptor gamma (Homo sapiens, UniProt P37231)
T2 sequence (P37231 whole entry): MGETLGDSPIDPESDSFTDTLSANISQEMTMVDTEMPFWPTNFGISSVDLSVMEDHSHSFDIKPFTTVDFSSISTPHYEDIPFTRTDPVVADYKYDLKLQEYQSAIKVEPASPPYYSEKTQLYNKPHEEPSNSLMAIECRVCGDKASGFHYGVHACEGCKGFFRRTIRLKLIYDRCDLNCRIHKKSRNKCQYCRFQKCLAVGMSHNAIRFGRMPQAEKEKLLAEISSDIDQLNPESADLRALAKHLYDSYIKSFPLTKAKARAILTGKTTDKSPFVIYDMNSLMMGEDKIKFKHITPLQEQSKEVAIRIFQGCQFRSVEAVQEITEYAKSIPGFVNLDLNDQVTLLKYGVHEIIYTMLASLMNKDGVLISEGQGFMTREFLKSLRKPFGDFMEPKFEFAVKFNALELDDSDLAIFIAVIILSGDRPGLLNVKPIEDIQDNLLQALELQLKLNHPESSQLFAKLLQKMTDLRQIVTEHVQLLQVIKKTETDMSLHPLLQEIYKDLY
Description: Agonist activity at human PPARgamma receptor expressed in african green monkey COS1 cells co-transfected with fused yeast Gal4-DBD by transactivation assay

Chain of Oxysterols receptor LXR-beta (Homo sapiens) (P55055 whole entry): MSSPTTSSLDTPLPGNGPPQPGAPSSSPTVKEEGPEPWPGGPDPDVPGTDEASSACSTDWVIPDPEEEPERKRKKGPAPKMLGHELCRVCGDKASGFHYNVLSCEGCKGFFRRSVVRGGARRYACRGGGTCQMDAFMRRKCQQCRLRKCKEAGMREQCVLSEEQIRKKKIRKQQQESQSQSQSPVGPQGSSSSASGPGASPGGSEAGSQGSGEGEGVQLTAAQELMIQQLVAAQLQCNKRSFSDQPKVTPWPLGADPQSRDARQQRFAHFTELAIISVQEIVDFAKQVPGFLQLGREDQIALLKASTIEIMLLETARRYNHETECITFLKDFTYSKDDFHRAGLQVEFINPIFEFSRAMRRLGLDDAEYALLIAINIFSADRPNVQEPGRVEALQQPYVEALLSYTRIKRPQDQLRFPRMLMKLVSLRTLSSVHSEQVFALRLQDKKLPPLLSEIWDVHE
Chain of Thyroid hormone receptor beta (Homo sapiens) (P10828 whole entry): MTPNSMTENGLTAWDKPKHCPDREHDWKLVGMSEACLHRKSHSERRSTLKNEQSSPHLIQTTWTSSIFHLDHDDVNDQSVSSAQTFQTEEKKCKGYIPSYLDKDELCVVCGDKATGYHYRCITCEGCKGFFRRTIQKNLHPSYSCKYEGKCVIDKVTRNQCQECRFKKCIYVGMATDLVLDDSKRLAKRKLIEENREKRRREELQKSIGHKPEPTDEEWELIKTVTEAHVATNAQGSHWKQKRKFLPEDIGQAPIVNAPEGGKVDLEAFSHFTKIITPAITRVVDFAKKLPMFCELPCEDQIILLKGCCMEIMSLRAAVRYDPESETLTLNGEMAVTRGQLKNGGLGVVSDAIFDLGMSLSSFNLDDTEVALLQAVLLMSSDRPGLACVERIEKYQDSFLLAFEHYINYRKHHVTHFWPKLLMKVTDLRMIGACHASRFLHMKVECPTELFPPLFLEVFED
Chain of Nuclear receptor subfamily 1 group I member 2 (O75469 whole entry): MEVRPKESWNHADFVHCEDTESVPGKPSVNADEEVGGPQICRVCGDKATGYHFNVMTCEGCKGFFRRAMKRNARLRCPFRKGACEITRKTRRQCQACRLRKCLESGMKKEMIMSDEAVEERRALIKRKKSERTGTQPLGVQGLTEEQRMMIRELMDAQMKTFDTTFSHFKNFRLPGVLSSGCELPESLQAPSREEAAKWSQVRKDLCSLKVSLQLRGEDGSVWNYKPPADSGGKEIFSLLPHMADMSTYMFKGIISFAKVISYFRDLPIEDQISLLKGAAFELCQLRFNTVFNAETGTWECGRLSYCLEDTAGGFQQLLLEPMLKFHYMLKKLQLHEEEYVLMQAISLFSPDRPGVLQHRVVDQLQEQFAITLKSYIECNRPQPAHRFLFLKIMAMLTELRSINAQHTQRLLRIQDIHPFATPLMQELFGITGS
Chain of Glucocorticoid receptor (Homo sapiens) (P04150 whole entry): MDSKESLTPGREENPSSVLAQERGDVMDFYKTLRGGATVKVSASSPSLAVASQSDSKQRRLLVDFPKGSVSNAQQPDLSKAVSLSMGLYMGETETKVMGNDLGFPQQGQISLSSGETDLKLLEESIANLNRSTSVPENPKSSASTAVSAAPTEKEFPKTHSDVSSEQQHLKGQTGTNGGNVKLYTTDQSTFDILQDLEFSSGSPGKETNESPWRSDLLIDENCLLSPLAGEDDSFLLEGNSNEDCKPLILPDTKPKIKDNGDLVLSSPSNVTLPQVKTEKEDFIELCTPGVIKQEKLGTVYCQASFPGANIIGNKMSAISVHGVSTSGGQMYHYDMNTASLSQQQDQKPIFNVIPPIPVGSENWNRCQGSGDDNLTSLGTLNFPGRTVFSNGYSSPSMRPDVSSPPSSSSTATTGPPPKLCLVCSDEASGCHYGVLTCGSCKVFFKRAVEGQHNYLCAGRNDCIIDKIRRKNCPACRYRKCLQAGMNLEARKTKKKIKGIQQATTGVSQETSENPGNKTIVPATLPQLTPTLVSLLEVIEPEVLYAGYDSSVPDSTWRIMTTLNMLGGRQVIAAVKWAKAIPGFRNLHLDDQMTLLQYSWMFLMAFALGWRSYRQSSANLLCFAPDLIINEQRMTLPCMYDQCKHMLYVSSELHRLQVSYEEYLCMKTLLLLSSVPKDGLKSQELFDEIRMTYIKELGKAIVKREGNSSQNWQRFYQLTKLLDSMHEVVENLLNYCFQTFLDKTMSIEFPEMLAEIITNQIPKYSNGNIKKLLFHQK
Chain of Peroxisome proliferator-activated receptor alpha (Canis lupus familiaris, UniProt Q95N78) (Q95N78 whole entry): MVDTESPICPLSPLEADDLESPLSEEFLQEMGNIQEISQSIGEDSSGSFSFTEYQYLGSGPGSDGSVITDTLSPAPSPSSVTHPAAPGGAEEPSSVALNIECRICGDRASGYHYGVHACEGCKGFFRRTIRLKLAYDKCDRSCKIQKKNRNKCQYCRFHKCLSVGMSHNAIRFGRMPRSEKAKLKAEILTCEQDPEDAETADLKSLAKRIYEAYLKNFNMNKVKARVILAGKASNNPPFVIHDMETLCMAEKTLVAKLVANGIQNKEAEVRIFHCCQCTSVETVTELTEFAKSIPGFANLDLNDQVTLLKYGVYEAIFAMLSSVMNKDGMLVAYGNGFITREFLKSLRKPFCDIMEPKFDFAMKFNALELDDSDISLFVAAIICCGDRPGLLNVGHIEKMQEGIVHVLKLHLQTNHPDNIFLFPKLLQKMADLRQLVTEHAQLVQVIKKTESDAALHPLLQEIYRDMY
Chain of Thyroid hormone receptor alpha (Homo sapiens) (P10827 whole entry): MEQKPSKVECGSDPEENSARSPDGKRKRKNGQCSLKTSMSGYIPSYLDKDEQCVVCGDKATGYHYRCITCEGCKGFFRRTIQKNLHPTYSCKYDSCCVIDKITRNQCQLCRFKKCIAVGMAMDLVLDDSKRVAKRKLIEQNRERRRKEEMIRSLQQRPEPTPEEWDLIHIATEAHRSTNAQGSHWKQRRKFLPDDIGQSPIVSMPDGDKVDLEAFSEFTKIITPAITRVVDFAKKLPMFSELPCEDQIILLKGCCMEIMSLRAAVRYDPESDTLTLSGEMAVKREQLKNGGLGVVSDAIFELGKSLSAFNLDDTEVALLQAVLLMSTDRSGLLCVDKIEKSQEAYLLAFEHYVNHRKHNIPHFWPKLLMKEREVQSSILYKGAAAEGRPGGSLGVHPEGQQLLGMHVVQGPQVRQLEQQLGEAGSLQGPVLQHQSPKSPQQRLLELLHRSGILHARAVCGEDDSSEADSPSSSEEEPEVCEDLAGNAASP
Chain of Cytochrome P450 2C9 (P11712 whole entry): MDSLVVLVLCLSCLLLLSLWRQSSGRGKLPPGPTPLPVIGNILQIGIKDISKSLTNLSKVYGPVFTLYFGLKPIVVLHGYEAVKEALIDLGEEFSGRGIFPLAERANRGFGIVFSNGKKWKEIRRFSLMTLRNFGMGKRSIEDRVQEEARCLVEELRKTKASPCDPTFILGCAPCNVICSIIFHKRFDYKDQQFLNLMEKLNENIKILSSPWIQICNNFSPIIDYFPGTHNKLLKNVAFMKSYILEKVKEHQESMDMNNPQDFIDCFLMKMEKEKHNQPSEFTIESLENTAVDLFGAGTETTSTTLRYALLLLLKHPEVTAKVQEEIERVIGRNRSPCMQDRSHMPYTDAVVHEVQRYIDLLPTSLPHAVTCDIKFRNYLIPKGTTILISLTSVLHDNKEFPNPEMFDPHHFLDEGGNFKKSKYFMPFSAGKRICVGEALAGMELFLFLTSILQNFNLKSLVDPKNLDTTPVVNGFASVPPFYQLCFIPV

## CC[C@@H](Oc1cccc(Cn2c(C)c(C(=O)c3ccc(Cl)cc3)c3ccc(OC(F)(F)F)cc32)c1)C(=O)O
Rattus norvegicus [1]
  Activity: Active
[2]
  EC50: 0.00055 µM
[3]
  Activity: inactive
[4]
  Activity: inactive
Rattus norvegicus [5]
  Activity: Active
[6]
  Activity: inactive
Mus musculus [7]
  Activity: 67%
[8]
  Cmax: 1500 nM
Mus musculus [9]
  Activity: 27%
Rattus norvegicus [10]
  Activity: Toxic
Cytochrome P450 2C9
  IC50: 10 µM
Mus musculus [11]
  Activity: 50%
[12]
  Cmax: 9600 nM
Syrian golden hamster
  Activity: 33.9%
[13]
  Cmax: 1030 nM
Mus musculus [14]
  Activity: 101%
Rattus norvegicus [15]
  Activity: Active
[16]
  Activity: Not Active
[17]
  Cmax: 18600 nM
[18]
  Cmax: 20 nM
[19]
  Activity: inactive
Rattus norvegicus [20]
  Activity: Active
Canis familiaris
  Activity: 26%
[21]
  EC50: 0.12 µM
[22]
  AUC at 216 h: 0.55 µM·h
[23]
  Activity: inactive
Rattus norvegicus [24]
  Activity: Non-toxic
[25]
  EC50: 0.002 µM
